Source: article PMC9267955, “Antidiabetic, Antiglycation, and Antioxidant Activities of Ethanolic Seed Extract of Passiflora edulis and Piceatannol In Vitro” (Molecules, 2022)
Marks after values point to notes of the source that are not given here.

Experiments:
MCF-10A cells = experiment: Intracellular ROS level (DCFH-DA) after NNKOAc; assay type: cell-based; settings: 50 µg/mL, 3 h pretreatment; NNKOAc 100 µM
Experimental: (§1) The generation of intracellular ROS in BEAS-2B, AML-12, and MCF-10A cells after treatments was measured as described previously. Briefly, DCFH-DA dye was readily taken up by cells and is subsequently hydrolyzed to DCFH, which can be oxidized to a measurable fluorescent product dichlorofluorescein (DCF). […] Cells with DMSO media (0.5%) served as the vehicle control. After treatments, DCFH-DA was added to the cell culture plates at a final concentration of 5 μM followed by 40 min incubation at dark. The fluorescence […] was then measured at an excitation and emission wavelength of 485 nm and 535 nm, using a microplate reader (Infinite® 200 PRO, TECAN, Männedorf, Switzerland).
(§2) BEAS-2B, MCF10-A, and AML-12, cells were purchased from the American Tissue Type Culture Collection (ATCC; CRL-9609, CRL-10317, and CRL-2254) and cultured with a specific medium. BEAS-2B cells were cultured with LHC-9 media at 37 °C in an incubator with 5% CO2. Culture flasks (polystyrene T75) were pre-coated with a mixture of 0.01 mg/mL fibronectin, 0.03 mg/mL bovine collagen type I, and 0.01 mg/mL bovine serum albumin were dissolved in LHC-9 medium overnight. […]

cultured myotubes = system: cultured myotubes; parameters: method as in PMID 25832644; settings: in the absence of insulin; cited from earlier work
AML-12 cells [1] = experiment: Intracellular ROS level (DCFH-DA) after NNKOAc; assay type: cell-based, mouse; settings: 50 µg/mL, 3 h pretreatment; NNKOAc 100 µM
Experimental: as §1, §2

BSA/MGO fluorescent AGEs = experiment: Inhibition of AGE formation, intermediate stage of glycation (BSA/MGO); assay type: biochemical, bovine; settings: BSA/MGO model
Experimental: (§3) The BSA-MGO assay was based on those described before, with some modifications. This experiment is based on the formation of fluorescent AGEs from the middle stage of protein glycation. MGO (1.5 mM) and BSA (3 mg/mL) were dissolved separately in 0.05 M phosphate buffer (pH 7.4) containing NaCl (100 mM) and NaN3 (0.02% w/v). Then, 300 μL of MGO was incubated with samples at different concentrations (dissolved in a buffer containing 60% ethanol) for an hour at 37 °C, in the dark, with constant stirring. After BSA (3 mg/mL) was added to the reaction mixture and incubation time was extended to 48 h at 37 °C in darkness. The rest of the procedure was the same as that for the BSA-glucose/fructose model that is described above. The percentage of the AGE inhibition and IC50 was calculated as described in Section 3.3.1.

AML-12 cells [2] = experiment: MTS cell viability assay; assay type: cell-based, mouse; settings: up to 250 µg/mL; 24 h
Experimental: (§4) BEAS-2B, MCF10-A, and AML-12, cells were purchased from the American Tissue Type Culture Collection (ATCC; CRL-9609, CRL-10317, and CRL-2254) and cultured with a specific medium. BEAS-2B cells were cultured with LHC-9 media at 37 °C in an incubator with 5% CO2. […] Cells were grown to around 70% confluence on the culture flask, and passages (<10) were employed for all experimental conditions. MTS Cell Titer 96™ aqueous cell proliferation assay was used to determine cell viability. […] For that, 1 × 10^4 cells were plated on a 96-well plate with a growth medium of 100 μL/well. […] Fifteen microliters of MTS reagent (with PMS) was then added to each well and incubated for 3 h in the dark. Absorbance was recorded at 490 nm using a microplate reader (Infinite® 200 PRO, TECAN, Männedorf, Switzerland). For each experiment, cells with DMSO media served as control, and cells with only culture medium and MTS reagent served as the blank.

[3] = system: amyloid fibrils of glycated BSA (BSA/MGO); experiment: Inhibition of amyloid fibril formation, ThT assay (BSA/MGO); assay type: biochemical, bovine; settings: highest obtained, PESE 200, PIC 200, AMG 100 µg/mL
Experimental: as §3
The fibrillar state of modified BSA was determined with ThT as previously described. ThT is a probe that binds directly to amyloid fibrils to give a strong fluorescent signal and thus can be used to quantify β-amyloid due to protein glycation. Basically, 30 μL of glycated protein (approx. 1 mg/mL), obtained as described previously, was mixed with 100 μL ThT reagent (10 μM ThT in 100 mM phosphate buffer, pH 7.0), and fluorescence was collected at excitation/emission wavelengths of 450/490 nm in a microplate reader (Infinite® 200 PRO, TECAN, Männedorf, Switzerland). […]

BEAS-2B cells = experiment: MTS cell viability assay; assay type: cell-based, human; settings: 100 µg/mL (409 µM); 24 h
Experimental: as §4

[4] = system: amyloid fibrils of glycated BSA (BSA/Fru + Glu); experiment: Inhibition of amyloid fibril formation, ThT assay (BSA/Fru + Glu); assay type: biochemical, bovine
Experimental: The formation of AGEs was measured after incubation of a system containing protein and carbohydrates. This assay was based on previous methods. The reaction system was obtained by adding 300 µL of plant extract or of the pure compound (at different concentrations), 150 µL D-fructose (200 mM), 150 µL of D-glucose (200 mM), and 300 µL of bovine serum albumin (BSA, 3 mg/mL) to a test tube. All these solutions, except plant extract, were dissolved in 0.05 M potassium phosphate buffer (pH 7.4) containing NaCl (100 mM) and NaN3 (0.02% w/v). The plant extract was prepared in a buffer containing 60% ethanol. The mixture was incubated in the dark at 37 °C for 7 days with constant stirring. After the incubation, 200 µL of the reaction mixture was transferred to a 96-well black plate, and fluorescent AGEs were measured using a microplate reader (Infinite® 200 PRO, TECAN, Männedorf, Switzerland) at λex = 360 and λem = 440 nm. […] The fluorescence readings for the experimental treatment were blanked against extract blanks to eliminate the baseline fluorescence of the sample. The percentage of the AGE inhibition and IC50 was calculated as described in Section 3.3.1.
The fibrillar state of modified BSA was determined with ThT as previously described. ThT is a probe that binds directly to amyloid fibrils to give a strong fluorescent signal and thus can be used to quantify β-amyloid due to protein glycation. […]

alpha-glucosidase = settings: formation of p-nitrophenol; cited from earlier work

Oc1cc(O)cc(/C=C/c2ccc(O)c(O)c2)c1 [PIC, 3,3′,4′,5-trans-tetrahydroxystilbene]
Protection from oxidative stress (ROS) caused by the carcinogen, MCF-10A (MCF-10A cells): able to protect
Glucose uptake in cultured myotubes (cultured myotubes): promoted glucose uptake
Protection from oxidative stress (ROS) caused by the carcinogen, AML-12 (AML-12 cells [1]): able to protect
Antiglycation IC50, MGO (BSA/MGO fluorescent AGEs): 67.4 ± 4.6 ^b μg/mL
Viability of AML-12 cells (AML-12 cells [2]): maintained
Inhibition of Amyloid Fibrils (%), MGO [3]: 100 ± 3.8 ^a %
Reduction of cell viability of BEAS-2B cells (BEAS-2B cells): approximately 50%
Inhibition of the formation of β-amyloid fibrils in vitro ([4]; abstract, glycation system not specified): up to 100%
Inhibition of Amyloid Fibrils (%), Fructose + Glucose ([4]; highest obtained, PESE 200, PIC 200, AMG 100 µg/mL, BSA/Fru + Glu): 100 ± 5.3 ^a %
Mechanism of alpha-glucosidase inhibition (alpha-glucosidase): non-competitive
